Legend:
[1] = system: Male Sprauge-Dawley rats, partial sciatic nerve ligation (PSNI model); test: Thermal hyperalgesia (plantar test, hind paw withdrawal latency) in the partial sciatic nerve ligation (PSNI/PSNL) model; format: in vivo, rat
From the text: Male Sprauge-Dawley rats (200-600 g) were used in all the experiments. The rats were permitted to acclimate 1 week before use in the experiments. The rats were marked with a speed marker on their tails and normally kept in groups of 2-3 per cage pre- and postoperatively. They were housed in clear plastic cages with solid floors covered with sawdust in a normal day/night cycle. Water and food were supplied ad libitum.
The method of partial sciatic nerve injury is developed by Seltzer. Before surgery, the rats were shaved and washed with iodine solution (Iobac vet.) on the surgical area. The left sciatic nerve was exposed at high-thigh level by making a 2-3 cm incision in the skin. The skin was then freed from the connective tissue surrounding the incision in order to assure free movement of the leg after skin stapling. Using blunt dissection through the biceps femoris, the nerve was exposed and carefully freed from surrounding connective tissue at a site near the trochanter just below the point at which the posterior biceps semitendinosus nerve branches off the common sciatic nerve. Using a small pincette slid under the nerve, the nerve was gently lifted up and fixed. An 8/0 Ethilon suture was inserted into the nerve and tightly ligated so that the dorsal 1/3-1/2 of the nerve thickness was trapped in the ligature. The muscle was closed with 2-3 muscle sutures (4/0 vicryl), and the skin closed with 3-4 skin staples.
Plantar test (Ugo Basile) was used in this study to asses the nociceptive response.
The rats were placed in the clear plastic chamber (18 cm×29 cm×12.5 cm) allowed to acclimate to the new environment for about 5 min. Before testing. During this time period the rat was showing exploratory behaviour e.g. standing on its hind leg. When the rat had been acclimated, it stood quietly with occasional bouts of grooming. The radiant heat score beneath the class floor was pointed at the planter hind paw with help from the white sight marks engraved on the top of the I.R vessel.
The infrared (IR) source was then started and the withdrawal latency recorded.
When the rat felt pain and withdrew its paw, the sudden drop in radiation led to a automatic stop of the IR source and the time counter and the withdrawal latency could be determined to the nearest 0.1 sec.
The withdrawal latency was every time tested 5 times with intervals of 5 min. The average of the 5 measurements were then used as the withdrawal latency of the specific rat.
Rats, which were undergoing PSNL, were only tested on the operated left leg. 3 consecutive days before the operation, the withdrawal latency of the left leg was measured using the average of the 3 days as the basic withdrawal latency. The rat was then tested postoperatively for more days.
The difference score, expressed as percent reduction from the basic level to the postoperative level measurement, was used as an index for hyperalgesia: [formula] (pom: postoperative measurement)
Group averages appear with the standard error of the mean. The significance level of difference between means of various groups at certain postoperative times was examined by Student's t-test. The difference between the same group but at different days was examined by ANOVA.

[2] = system: rats with sciatic nerve constriction injury (CCI); settings: spinal administration prior to CCI; cited from earlier work
[3] = Soluble expression of TNF-α variants in E. coli; format: physicochemical
From the text: Insertion of the PADRE epitope (SEQ ID NO: 4) into loop 3 in position Gly108-Ala109 is a promising approach to prepare TNF-α variants with a structure closely resembling the native TNF-α molecule. It has been deduced from the TNF-α crystal structure that a TH epitope inserted directly into this position will not have any neighbouring amino acid residues in close proximity to interact with.

[4] = bacterial host cells grown at 37° C.

For `Clc1cccc(Cl)c1N=C1NCCN1` [clonidine], the “difference score in percent between the basic level and the postoperative measurement” value ([1]; clonidine 0.6 mg/kg once at day 4 postoperatively after testing, day 5) is given as −0.2±8.5%, the “difference score in percent between the basic level and the postoperative measurement” value ([1]; clonidine 0.6 mg/kg orally started 2 hours pre PSNI, repeated to day 2, day 2) is given as 2.6±3.1% and the “delay in onset of thermal hyperestesia compared to control groups” value [2] is given as 3 days.

In the case of `O=C1CCC(N2C(=O)c3ccccc3C2=O)C(=O)N1` (stereo not shown) [thalidomide], the “difference score in percent between the basic level and the postoperative measurement” value ([1]; thalidomide 50 mg/kg orally daily from 2 h pre-operation, day 2) is reported as 33.3±4.1%, the “difference score in percent between the basic level and the postoperative measurement” value ([1]; thalidomide 50 mg/kg orally daily, day 4) is reported as 33.9±5.9% and the “difference score in percent between the basic level and the postoperative measurement” value ([1]; thalidomide 50 mg/kg orally daily, day 6) is reported as 40.5±3.2%. The “difference score in percent between the basic level and the postoperative measurement” value ([1]; thalidomide 50 mg/kg orally daily, day 8) was 41.3±3.4%, the “difference score in percent between the basic level and the postoperative measurement” value ([1]; thalidomide 50 mg/kg orally daily, day 10) was 30.6±5.3% and the “difference score in percent between the basic level and the postoperative measurement” value ([1]; thalidomide 100 mg/kg orally daily from 2 h pre-operation, day 2) was 22.0±7.2%. For the same molecule, the “difference score in percent between the basic level and the postoperative measurement” value ([1]; thalidomide 100 mg/kg orally daily, day 4) was 32.4±6.4%, the “difference score in percent between the basic level and the postoperative measurement” value ([1]; thalidomide 100 mg/kg orally daily, day 6) was 38.0±4.1% and the “difference score in percent between the basic level and the postoperative measurement” value ([1]; thalidomide 100 mg/kg orally daily, day 8) was 34.1±5.4%. The “difference score in percent between the basic level and the postoperative measurement” value ([1]; thalidomide 100 mg/kg orally daily, day 10) was 29.8±4.6%.

With “TNF_T0: three TNFα monomers linked by two GlyGlyGly linkers; SEQ ID NO: 22 in PCT/DK02/00764” the “expression form in E. coli / bacterial cells” value [3] was “soluble protein”.

In the case of infliximab, the “difference score (basic level vs postoperative withdrawal latency) versus saline control” value ([1]; infliximab 5 mg/kg i.v. 2 hours prior to PSNL, days 2, 4, 6 and 7 postoperatively) is reported as “No significant differences”, the “difference score in percent between the basic level and the postoperative measurement” value ([1]; infliximab 5 μl (10 mg/ml) icv at days 2, 3 and 4, day 3) is reported as 39.2±5.6% and the “difference score in percent between the basic level and the postoperative measurement” value ([1]; infliximab 5 μl (10 mg/ml) icv at days 2, 3 and 4, day 4) is reported as 43.4±3.8%. For the same molecule, the “difference score in percent between the basic level and the postoperative measurement” value ([1]; infliximab 5 μl (10 mg/ml) icv at days 2, 3 and 4, day 6) was 47.2±4.0%, the “difference score in percent between the basic level and the postoperative measurement” value ([1]; infliximab 5 μl (10 mg/ml) icv at days 2, 3 and 4, day 8) was 30.6±6.1% and the “nociceptive threshold compared to the control group” value ([1]; infliximab 5 μl (10 mg/ml) icv at days 2, 3 and 4 postoperatively) was “no significant difference”. The “difference score in percent between the basic level and the postoperative measurement” value ([1]; infliximab 5 μl (10 mg/ml) icv at days 2, 3 and 4 postoperatively, day 2) was 41.3±4.4%, the “difference score in percent between the basic level and the postoperative measurement” value ([1]; infliximab (10 mg/ml) icv continuously 0.5 μl/h by osmotic pump started day 3 preoperatively, day 2) was 34.2±5.4% and the “difference score in percent between the basic level and the postoperative measurement” value ([1]; infliximab (10 mg/ml) icv continuously 0.5 μl/h started day 3 preoperatively, day 4) was 34.6±5.4%. The “difference score in percent between the basic level and the postoperative measurement” value ([1]; infliximab (10 mg/ml) icv continuously 0.5 μl/h started day 3 preoperatively, day 6) was 30.3±8.2% and the “difference score in percent between the basic level and the postoperative measurement” value ([1]; infliximab (10 mg/ml) icv continuously 0.5 μl/h started day 3 preoperatively, day 8) was 27.5±5.2%.

B1: TNF34: human TNF-α variant, PADRE epitope inserted into loop 3 at Gly108-Ala109; SEQ ID NO: 18 in PCT/DK02/00764 (protein)
chain: VRSSSRTPSDKPVAHVVANPQAEGQLQWLNRRANALLANGVELRDNQLVVPSEGLYLIYSQVLFKGQGCPSTHVLLTHTISRIAVSYQTKVNLLSAIKSPCQRETPEGAKFVAAWTLKAAAAEAKPWYEPIYLGGVFQLEKGDRLSAEINRPDYLDFAESGQVYFGIIAL
modifications: hTNF with inserted PADRE
For B1, the “fraction expressed as inclusion bodies” value [3, 4] was 95%, the “fraction of the expressed protein soluble in E. coli” value [3, 4] was “approximately 5%” and the “yield of soluble protein from the fermentation” value ([3]; fermentation temperature 25° C.) was roughly 100%.
